Experiments:
Type in all cases: in vivo
fig-leafed goosefoot [1] = assay: Test Example 4: weedkilling efficacy by foliar treatment; M: fig-leafed goosefoot; conditions: treatment dosage 315 g/ha
Method in brief: (§1)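 Seeds are spot-sown into sterilized diluvial soil and covered with about 1.5 cm of soil. After 14 days' greenhouse growth at 25 to 30° C, plants are sprayed on stems and leaves with diluted emulsion at the stated g/ha rate, then scored at 3 weeks.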

bulrush [2] = assay: Test Example 1: weedkilling efficacy, preemergent weed treatment in the submerged state; B: bulrush; conditions: treatment dosage 252 g/ha
Method in brief: (§2)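 Pre-emergence paddy test: weed seeds sown in submerged alluvial soil (4 cm water), 2.5-leaf rice transplanted, water-diluted emulsion applied to water surface at sowing at stated g/ha. Scored at 3 weeks, greenhouse 25–30 °C.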

directly sown rice [3] = assay: Test Example 3: soil treatment, effect on crop; b: directly sown rice; conditions: treatment dosage 315 g/ha
Method in brief: (§3)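 Crop and weed responses were judged three weeks after a uniform surface spray of the water-diluted emulsion at the given g/ha rate. Seeds sat beneath about 1.5 cm of sterilized diluvial soil, and boxes stood in a greenhouse at 25 to 30° C.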

corn [4] = assay: Test Example 4: foliar treatment, effect on crop; c: corn; conditions: treatment dosage 315 g/ha
Method in brief: as §1

beet [5] = assay: Test Example 4: foliar treatment, effect on crop; f: beet; conditions: treatment dosage 315 g/ha
Method in brief: as §1

Italian ryegrass [6] = assay: Test Example 3: weedkilling efficacy through soil treatment; I: Italian ryegrass; conditions: treatment dosage 315 g/ha
Method in brief: as §3

soybean [7] = assay: Test Example 4: foliar treatment, effect on crop; d: soybean; conditions: treatment dosage 315 g/ha
Method in brief: as §1

green foxtail [8] = assay: Test Example 3: weedkilling efficacy through soil treatment; E: green foxtail; conditions: treatment dosage 315 g/ha
Method in brief: as §3

chickweed [9] = assay: Test Example 4: weedkilling efficacy by foliar treatment; N: chickweed; conditions: treatment dosage 315 g/ha
Method in brief: as §1

birds-eye speedwell [10] = assay: Test Example 3: weedkilling efficacy through soil treatment; p: birds-eye speedwell; conditions: treatment dosage 315 g/ha
Method in brief: as §3

oval-leafed pondweed [11] = assay: Test Example 1: weedkilling efficacy, preemergent weed treatment in the submerged state; C: oval-leafed pondweed; conditions: treatment dosage 252 g/ha
Method in brief: as §2

directly sown rice [12] = assay: Test Example 4: foliar treatment, effect on crop; b: directly sown rice; conditions: treatment dosage 315 g/ha
Method in brief: as §1

fig-leafed goosefoot [13] = assay: Test Example 3: weedkilling efficacy through soil treatment; M: fig-leafed goosefoot; conditions: treatment dosage 315 g/ha
Method in brief: as §3

wheat [14] = assay: Test Example 3: soil treatment, effect on crop; e: wheat; conditions: treatment dosage 315 g/ha
Method in brief: as §3

catchweed = assay: Test Example 4: weedkilling efficacy by foliar treatment; O: catchweed; conditions: treatment dosage 315 g/ha
Method in brief: as §1

bulrush [15] = assay: Test Example 2: weedkilling efficacy, growth period weed treatment in the submerged state; B: bulrush; conditions: treatment dosage 252 g/ha
Method in brief: (§4)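 Seedlings at 1-2 leaves in 4 cm-deep submerged alluvial soil received emulsion formulations on the water surface, dosed per hectare; effects were judged 3 weeks on.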

oval-leafed pondweed [16] = assay: Test Example 2: weedkilling efficacy, growth period weed treatment in the submerged state; C: oval-leafed pondweed; conditions: treatment dosage 252 g/ha
Method in brief: as §4

birds-eye speedwell [17] = assay: Test Example 4: weedkilling efficacy by foliar treatment; p: birds-eye speedwell; conditions: treatment dosage 315 g/ha
Method in brief: as §1

soybean [18] = assay: Test Example 3: soil treatment, effect on crop; d: soybean; conditions: treatment dosage 315 g/ha
Method in brief: as §3

barnyard grass [19] = assay: Test Example 1: weedkilling efficacy, preemergent weed treatment in the submerged state; A: barnyard grass; conditions: treatment dosage 252 g/ha
Method in brief: as §2

wild oat = assay: Test Example 3: weedkilling efficacy through soil treatment; G: wild oat; conditions: treatment dosage 315 g/ha
Method in brief: as §3

redroot pigweed [20] = assay: Test Example 3: weedkilling efficacy through soil treatment; L: redroot pigweed; conditions: treatment dosage 315 g/ha
Method in brief: as §3

black-grass [21] = assay: Test Example 3: weedkilling efficacy through soil treatment; H: black-grass; conditions: treatment dosage 315 g/ha
Method in brief: as §3

Italian ryegrass [22] = assay: Test Example 4: weedkilling efficacy by foliar treatment; I: Italian ryegrass; conditions: treatment dosage 315 g/ha
Method in brief: as §1

black-grass [23] = assay: Test Example 4: weedkilling efficacy by foliar treatment; H: black-grass; conditions: treatment dosage 315 g/ha
Method in brief: as §1

Indian mallow [24] = assay: Test Example 3: weedkilling efficacy through soil treatment; K: Indian mallow; conditions: treatment dosage 315 g/ha
Method in brief: as §3

crabgrass [25] = assay: Test Example 4: weedkilling efficacy by foliar treatment; D: crabgrass; conditions: treatment dosage 315 g/ha
Method in brief: as §1

transplanted rice = assay: Test Example 1: preemergent weed treatment in the submerged state, effect on crop; a: transplanted rice; conditions: treatment dosage 252 g/ha
Method in brief: as §2

Indian mallow [26] = assay: Test Example 4: weedkilling efficacy by foliar treatment; K: Indian mallow; conditions: treatment dosage 315 g/ha
Method in brief: as §1

green foxtail [27] = assay: Test Example 4: weedkilling efficacy by foliar treatment; E: green foxtail; conditions: treatment dosage 315 g/ha
Method in brief: as §1

redroot pigweed [28] = assay: Test Example 4: weedkilling efficacy by foliar treatment; L: redroot pigweed; conditions: treatment dosage 315 g/ha
Method in brief: as §1

crabgrass [29] = assay: Test Example 3: weedkilling efficacy through soil treatment; D: crabgrass; conditions: treatment dosage 315 g/ha
Method in brief: as §3

chickweed [30] = assay: Test Example 3: weedkilling efficacy through soil treatment; N: chickweed; conditions: treatment dosage 315 g/ha
Method in brief: as §3

wheat [31] = assay: Test Example 4: foliar treatment, effect on crop; e: wheat; conditions: treatment dosage 315 g/ha
Method in brief: as §1

beet [32] = assay: Test Example 3: soil treatment, effect on crop; f: beet; conditions: treatment dosage 315 g/ha
Method in brief: as §3

corn [33] = assay: Test Example 3: soil treatment, effect on crop; c: corn; conditions: treatment dosage 315 g/ha
Method in brief: as §3

barnyard grass [34] = assay: Test Example 2: weedkilling efficacy, growth period weed treatment in the submerged state; A: barnyard grass; conditions: treatment dosage 252 g/ha
Method in brief: as §4

Structure (SMILES)	M (fig-leafed goosefoot) weedkilling efficacy grade (fig-leafed goosefoot [1])	B (bulrush) weedkilling efficacy grade (bulrush [2])	b (directly sown rice) effect on crop grade (directly sown rice [3])	c (corn) effect on crop grade (corn [4])	f (beet) effect on crop grade (beet [5])	I (Italian ryegrass) weedkilling efficacy grade (Italian ryegrass [6])	d (soybean) effect on crop grade (soybean [7])	E (green foxtail) weedkilling efficacy grade (green foxtail [8])	N (chickweed) weedkilling efficacy grade (chickweed [9])	P (birds-eye speedwell) weedkilling efficacy grade (birds-eye speedwell [10])	C (oval-leafed pondweed) weedkilling efficacy grade (oval-leafed pondweed [11])	b (directly sown rice) effect on crop grade (directly sown rice [12])	M (fig-leafed goosefoot) weedkilling efficacy grade (fig-leafed goosefoot [13])	e (wheat) effect on crop grade (wheat [14])	O (catchweed) weedkilling efficacy grade (catchweed)	B (bulrush) weedkilling efficacy grade (bulrush [15])	C (oval-leafed pondweed) weedkilling efficacy grade (oval-leafed pondweed [16])	P (birds-eye speedwell) weedkilling efficacy grade (birds-eye speedwell [17])	d (soybean) effect on crop grade (soybean [18])	A (barnyard grass) weedkilling efficacy grade (barnyard grass [19])	further results
COc1nsc(NC(=O)C(C)(C)N2COC(C)=C(c3ccsc3)C2=O)n1 [B-1-04]	5 (weed kill ratio 90% or more, (practically complete withering))	5 (weed kill ratio 90% or more, (practically complete withering))	4 (weed kill ratio 70% or more, less than 90%)	3 (weed kill ratio 40% or more, less than 70%)	5 (weed kill ratio 90% or more, (practically complete withering))	5 (weed kill ratio 90% or more, (practically complete withering))	0 (weed kill ratio 5% or less (practically no effect))	5 (weed kill ratio 90% or more, (practically complete withering))	3 (weed kill ratio 40% or more, less than 70%)	5 (weed kill ratio 90% or more, (practically complete withering))	5 (weed kill ratio 90% or more, (practically complete withering))	4 (weed kill ratio 70% or more, less than 90%)	5 (weed kill ratio 90% or more, (practically complete withering))	0 (weed kill ratio 5% or less (practically no effect))	4 (weed kill ratio 70% or more, less than 90%)	5 (weed kill ratio 90% or more, (practically complete withering))	5 (weed kill ratio 90% or more, (practically complete withering))	3 (weed kill ratio 40% or more, less than 70%)	0 (weed kill ratio 5% or less (practically no effect))	5 (weed kill ratio 90% or more, (practically complete withering))	G (wild oat) weedkilling efficacy grade (wild oat): 4 (weed kill ratio 70% or more, less than 90%); L (redroot pigweed) weedkilling efficacy grade (redroot pigweed [20]): 4 (weed kill ratio 70% or more, less than 90%); H (black-grass) weedkilling efficacy grade (black-grass [21]): 5 (weed kill ratio 90% or more, (practically complete withering)); I (Italian ryegrass) weedkilling efficacy grade (Italian ryegrass [22]): 5 (weed kill ratio 90% or more, (practically complete withering)); H (black-grass) weedkilling efficacy grade (black-grass [23]): 5 (weed kill ratio 90% or more, (practically complete withering)); K (Indian mallow) weedkilling efficacy grade (Indian mallow [24]): 3 (weed kill ratio 40% or more, less than 70%); D (crabgrass) weedkilling efficacy grade (crabgrass [25]): 4 (weed kill ratio 70% or more, less than 90%); a (transplanted rice) effect on crop grade (transplanted rice): 0 (weed kill ratio 5% or less (practically no effect)); K (Indian mallow) weedkilling efficacy grade (Indian mallow [26]): 4 (weed kill ratio 70% or more, less than 90%); E (green foxtail) weedkilling efficacy grade (green foxtail [27]): 4 (weed kill ratio 70% or more, less than 90%); L (redroot pigweed) weedkilling efficacy grade (redroot pigweed [28]): 4 (weed kill ratio 70% or more, less than 90%); D (crabgrass) weedkilling efficacy grade (crabgrass [29]): 5 (weed kill ratio 90% or more, (practically complete withering)); N (chickweed) weedkilling efficacy grade (chickweed [30]): 4 (weed kill ratio 70% or more, less than 90%); e (wheat) effect on crop grade (wheat [31]): 0 (weed kill ratio 5% or less (practically no effect)); f (beet) effect on crop grade (beet [32]): 4 (weed kill ratio 70% or more, less than 90%); c (corn) effect on crop grade (corn [33]): 0 (weed kill ratio 5% or less (practically no effect)); A (barnyard grass) weedkilling efficacy grade (barnyard grass [34]): 5 (weed kill ratio 90% or more, (practically complete withering))
CC1=C(c2ccccc2)C(=O)N(C(C)(C)C(=O)Nc2cccc(Cl)n2)CO1 [B-2-29]	4 (weed kill ratio 70% or more, less than 90%)	5 (weed kill ratio 90% or more, (practically complete withering))	5 (weed kill ratio 90% or more, (practically complete withering))	4 (weed kill ratio 70% or more, less than 90%)	4 (weed kill ratio 70% or more, less than 90%)	5 (weed kill ratio 90% or more, (practically complete withering))	5 (weed kill ratio 90% or more, (practically complete withering))	5 (weed kill ratio 90% or more, (practically complete withering))	5 (weed kill ratio 90% or more, (practically complete withering))	5 (weed kill ratio 90% or more, (practically complete withering))	5 (weed kill ratio 90% or more, (practically complete withering))	5 (weed kill ratio 90% or more, (practically complete withering))	5 (weed kill ratio 90% or more, (practically complete withering))	5 (weed kill ratio 90% or more, (practically complete withering))	4 (weed kill ratio 70% or more, less than 90%)	5 (weed kill ratio 90% or more, (practically complete withering))	5 (weed kill ratio 90% or more, (practically complete withering))	4 (weed kill ratio 70% or more, less than 90%)	3 (weed kill ratio 40% or more, less than 70%)	5 (weed kill ratio 90% or more, (practically complete withering))	L (redroot pigweed) weedkilling efficacy grade (redroot pigweed [20]): 4 (weed kill ratio 70% or more, less than 90%); H (black-grass) weedkilling efficacy grade (black-grass [21]): 5 (weed kill ratio 90% or more, (practically complete withering)); I (Italian ryegrass) weedkilling efficacy grade (Italian ryegrass [22]): 5 (weed kill ratio 90% or more, (practically complete withering)); H (black-grass) weedkilling efficacy grade (black-grass [23]): 5 (weed kill ratio 90% or more, (practically complete withering)); K (Indian mallow) weedkilling efficacy grade (Indian mallow [24]): 4 (weed kill ratio 70% or more, less than 90%); D (crabgrass) weedkilling efficacy grade (crabgrass [25]): 5 (weed kill ratio 90% or more, (practically complete withering)); a (transplanted rice) effect on crop grade (transplanted rice): 0 (weed kill ratio 5% or less (practically no effect)); K (Indian mallow) weedkilling efficacy grade (Indian mallow [26]): 5 (weed kill ratio 90% or more, (practically complete withering)); E (green foxtail) weedkilling efficacy grade (green foxtail [27]): 5 (weed kill ratio 90% or more, (practically complete withering)); L (redroot pigweed) weedkilling efficacy grade (redroot pigweed [28]): 5 (weed kill ratio 90% or more, (practically complete withering)); D (crabgrass) weedkilling efficacy grade (crabgrass [29]): 5 (weed kill ratio 90% or more, (practically complete withering)); N (chickweed) weedkilling efficacy grade (chickweed [30]): 5 (weed kill ratio 90% or more, (practically complete withering)); e (wheat) effect on crop grade (wheat [31]): 5 (weed kill ratio 90% or more, (practically complete withering)); f (beet) effect on crop grade (beet [32]): 5 (weed kill ratio 90% or more, (practically complete withering)); c (corn) effect on crop grade (corn [33]): 0 (weed kill ratio 5% or less (practically no effect)); A (barnyard grass) weedkilling efficacy grade (barnyard grass [34]): 5 (weed kill ratio 90% or more, (practically complete withering))

Source: patent US9738634B2, “Heterocyclic amide compound and herbicide” (SYNGENTA PARTICIPATIONS AG, priority 2013, dated 2017)
